{
  "source": "patent US11389471B2",
  "about": "“Systems and methods to improve organ or tissue function and organ or tissue transplant longevity” (Proterris Inc., priority 2014, dated 2022)",
  "origin": "cited, not measured here",
  "settings": "CO alveolar concentration of 25 ppm; CFK equation",
  "data": [
    {"smiles": "[C-]#[O+]", "note": "[CO, carbon monoxide]", "values": [
      {"measurement": "time to reach an equilibration point", "result": "about 20 hours"}
    ]}
  ]
}
